Measured values reported in PubChem BioAssay AID2060884 (Molecular Pharmacology Branch, DTP, NCI, 2025).

System: NCI-H929 complex spheroids, viability % test/control
Experiment: Anticancer human tumor NCI-H929 cell line growth inhibition [RAS];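 also: compound exposure lasted seven days before viability was read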;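 as to viability, T/C: 100% = DMSO vehicle control viability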
Conditions: for viability, T/C: stronger effect = lower value
Method in brief: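 Tumour cells grown as complex spheroids with HUVEC endothelial cells and mesenchymal stem cells, treated with RAS pathway inhibitor combinations. Each agent spans half-log steps from near clinical Cmax, or 10 microM where Cmax is unknown.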

C=CC(=O)Nc1cc(Nc2nccc(-c3cn(C)c4ccccc34)n2)c(OC)cc1N(C)CCN(C)C + C#Cc1c(F)ccc2cc(O)cc(-c3ncc4c(N5CC6CCC(C5)N6)nc(OCC56CCCN5CC(F)C6)nc4c3F)c12
IC50 (curve of first compound, second compound 0.0316 µM): > 1000 nM | IC50 (curve of first compound, second compound 0.1 µM): > 1000 nM | IC50 (curve of first compound, second compound 0.316 µM): > 1000 nM | IC50 (curve of first compound, second compound 1 µM): > 1000 nM | IC50 (curve of first compound, second compound 3.16 µM): > 1000 nM | IC50 (curve of first compound, second compound 10 µM): > 1000 nM | viability, T/C (second compound 0.0316 µM, first compound 0.00316 µM): 101% | viability, T/C (second compound 0.0316 µM, first compound 0.01 µM): 94.1% | viability, T/C (second compound 0.0316 µM, first compound 0.0316 µM): 101% | viability, T/C (second compound 0.0316 µM, first compound 0.1 µM): 95.4% | viability, T/C (second compound 0.0316 µM, first compound 0.316 µM): 99.7% | viability, T/C (second compound 0.0316 µM, first compound 1 µM): 98.8% | viability, T/C (second compound 0.1 µM, first compound 0.00316 µM): 96.8% | viability, T/C (second compound 0.1 µM, first compound 0.01 µM): 97.5% | viability, T/C (second compound 0.1 µM, first compound 0.0316 µM): 102% | viability, T/C (second compound 0.1 µM, first compound 0.1 µM): 98.6% | viability, T/C (second compound 0.1 µM, first compound 0.316 µM): 101% | viability, T/C (second compound 0.1 µM, first compound 1 µM): 102% | viability, T/C (second compound 0.316 µM, first compound 0.00316 µM): 98.1% | viability, T/C (second compound 0.316 µM, first compound 0.01 µM): 101% | viability, T/C (second compound 0.316 µM, first compound 0.0316 µM): 103% | viability, T/C (second compound 0.316 µM, first compound 0.1 µM): 99.2% | viability, T/C (second compound 0.316 µM, first compound 0.316 µM): 104% | viability, T/C (second compound 0.316 µM, first compound 1 µM): 101% | viability, T/C (second compound 1 µM, first compound 0.00316 µM): 94% | viability, T/C (second compound 1 µM, first compound 0.01 µM): 97.2% | viability, T/C (second compound 1 µM, first compound 0.0316 µM): 106% | viability, T/C (second compound 1 µM, first compound 0.1 µM): 102% | viability, T/C (second compound 1 µM, first compound 0.316 µM): 102% | viability, T/C (second compound 1 µM, first compound 1 µM): 102% | viability, T/C (second compound 3.16 µM, first compound 0.00316 µM): 101% | viability, T/C (second compound 3.16 µM, first compound 0.01 µM): 97.8% | viability, T/C (second compound 3.16 µM, first compound 0.0316 µM): 103% | viability, T/C (second compound 3.16 µM, first compound 0.1 µM): 98.8% | viability, T/C (second compound 3.16 µM, first compound 0.316 µM): 102% | viability, T/C (second compound 3.16 µM, first compound 1 µM): 104% | viability, T/C (second compound 10 µM, first compound 0.00316 µM): 94% | viability, T/C (second compound 10 µM, first compound 0.01 µM): 98.8% | viability, T/C (second compound 10 µM, first compound 0.0316 µM): 94.8% | viability, T/C (second compound 10 µM, first compound 0.1 µM): 102% | viability, T/C (second compound 10 µM, first compound 0.316 µM): 99.1% | viability, T/C (second compound 10 µM, first compound 1 µM): 98.3%

CC(C)n1nc(-c2ccc3oc(N)nc3c2)c2c(N)ncnc21 + CCn1c(-c2cc(N3CCN(C)CC3)cnc2C(C)OC)c2c3cc(ccc31)-c1csc(n1)CC(NC(=O)C1CC1C)C(=O)N1CCCC(N1)C(=O)OCC(C)(C)C2
IC50 (curve of first compound, second compound 0.000949 µM): 55 nM | IC50 (curve of first compound, second compound 0.003 µM): 55 nM | IC50 (curve of first compound, second compound 0.00949 µM): 29.2 nM | IC50 (curve of first compound, second compound 0.03 µM): 2.58 nM | IC50 (curve of first compound, second compound 0.0949 µM): < 0.316 nM | IC50 (curve of first compound, second compound 0.3 µM): < 0.316 nM | viability, T/C (second compound 0.000949 µM, first compound 0.000316 µM): 103% | viability, T/C (second compound 0.000949 µM, first compound 0.001 µM): 101% | viability, T/C (second compound 0.000949 µM, first compound 0.00316 µM): 111% | viability, T/C (second compound 0.000949 µM, first compound 0.01 µM): 110% | viability, T/C (second compound 0.000949 µM, first compound 0.0316 µM): 93.2% | viability, T/C (second compound 0.000949 µM, first compound 0.1 µM): 3.1% | viability, T/C (second compound 0.003 µM, first compound 0.000316 µM): 97.5% | viability, T/C (second compound 0.003 µM, first compound 0.001 µM): 95.7% | viability, T/C (second compound 0.003 µM, first compound 0.00316 µM): 101% | viability, T/C (second compound 0.003 µM, first compound 0.01 µM): 114% | viability, T/C (second compound 0.003 µM, first compound 0.0316 µM): 93% | viability, T/C (second compound 0.003 µM, first compound 0.1 µM): 3.74% | viability, T/C (second compound 0.00949 µM, first compound 0.000316 µM): 108% | viability, T/C (second compound 0.00949 µM, first compound 0.001 µM): 114% | viability, T/C (second compound 0.00949 µM, first compound 0.00316 µM): 119% | viability, T/C (second compound 0.00949 µM, first compound 0.01 µM): 120% | viability, T/C (second compound 0.00949 µM, first compound 0.0316 µM): 45.1% | viability, T/C (second compound 0.00949 µM, first compound 0.1 µM): 1.87% | viability, T/C (second compound 0.03 µM, first compound 0.000316 µM): 74.5% | viability, T/C (second compound 0.03 µM, first compound 0.001 µM): 74.2% | viability, T/C (second compound 0.03 µM, first compound 0.00316 µM): 39.7% | viability, T/C (second compound 0.03 µM, first compound 0.01 µM): 26.1% | viability, T/C (second compound 0.03 µM, first compound 0.0316 µM): 4.36% | viability, T/C (second compound 0.03 µM, first compound 0.1 µM): 0.46% | viability, T/C (second compound 0.0949 µM, first compound 0.000316 µM): 7.99% | viability, T/C (second compound 0.0949 µM, first compound 0.001 µM): 7.3% | viability, T/C (second compound 0.0949 µM, first compound 0.00316 µM): 2.87% | viability, T/C (second compound 0.0949 µM, first compound 0.01 µM): 1.59% | viability, T/C (second compound 0.0949 µM, first compound 0.0316 µM): 0.69% | viability, T/C (second compound 0.0949 µM, first compound 0.1 µM): 0.3% | viability, T/C (second compound 0.3 µM, first compound 0.000316 µM): 3.49% | viability, T/C (second compound 0.3 µM, first compound 0.001 µM): 2.63% | viability, T/C (second compound 0.3 µM, first compound 0.00316 µM): 1.48% | viability, T/C (second compound 0.3 µM, first compound 0.01 µM): 0.92% | viability, T/C (second compound 0.3 µM, first compound 0.0316 µM): 0.47% | viability, T/C (second compound 0.3 µM, first compound 0.1 µM): 0.34%

C#Cc1c(F)ccc2cc(O)cc(-c3ncc4c(N5CC6CCC(C5)N6)nc(OCC56CCCN5CC(F)C6)nc4c3F)c12 (stereo unspecified)
viability, T/C (compound 0.0316 µM): 102% [middle of 8 runs] | viability, T/C (compound 0.1 µM): 103% [middle of 8 runs] | viability, T/C (compound 0.316 µM): 101% [middle of 8 runs] | viability, T/C (compound 1 µM): 97% [middle of 8 runs] | viability, T/C (compound 3.16 µM): 97.6% [middle of 8 runs] | viability, T/C (compound 10 µM): 96.6% [middle of 8 runs] | IC50 (compound alone, run of 09/09/2024): > 10000 nM
